System: Cdc7 (pS53MCM2 levels in HCT116 cells)
Test: Cdc7 Cell Pharmacodynamics Assay Method 1: pS53MCM2 levels in HCT116 cells, 6 hours
Type: cell-based
Conditions: Homo sapiens, HCT-116, 6 h, read-out: Biomarker Method 1 (pEC50) (converted)
Summary of the method: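 HCT116 cells (wild-type p53), 20,000 per well in McCoys 5A with 10% FCS, treated with compound for 6 h at 37 °C. Lysates captured on total-MCM2 antibody and probed with anti-pMCM2 Ser53 plus HRP secondary; chemiluminescent read-out of pS53MCM2 levels.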

SMILES	EC50
NC[C@@H]1CCCN(c2nc(-c3ccnc(F)c3)[nH]c(=O)c2Cl)C1 [Compound 363]	794 nM
C[C@@H]1CNCCN1c1nc(-c2ccncc2)[nH]c(=O)c1Cl [Compound 364]	20.4 nM
O=c1[nH]c(-c2ccnc(F)c2)nc(N2CCOCC2)c1Cl [Compound 316]	39.8 nM
N[C@H]1CCCN(c2nc(-c3ccnc(F)c3)[nH]c(=O)c2Cl)C1 [Compound 317]	97.7 nM
NC[C@H]1CCCN(c2nc(-c3ccnc(F)c3)[nH]c(=O)c2Cl)C1 [Compound 362]	302 nM
C[C@H]1CN(c2nc(-c3ccncc3)[nH]c(=O)c2Cl)CCN1 [Compound 130]	107 nM
O=c1[nH]c(-c2ccncc2)nc(N2CCN[C@H](C(F)(F)F)C2)c1Cl [Compound 139]	324 nM
O=c1[nH]c(-c2ccnc(F)c2)nc(N2CCN[C@@H](C(F)(F)F)C2)c1Cl [Compound 314]	12.3 nM
O=c1[nH]c(-c2ccnc(F)c2)nc(N2CCNCC2)c1Cl [Compound 360]	57.5 nM
C[C@@H]1CNCCN1c1nc(-c2ccnc(F)c2)[nH]c(=O)c1Cl [Compound 323]	22.4 nM
CC(C)[C@H]1CN(c2nc(-c3ccncc3)[nH]c(=O)c2F)CCN1 [Compound 308]	178 nM
O=c1[nH]c(-c2ccnc(F)c2)nc(N2CCCC(F)(F)C2)c1Cl [Compound 90, 5-chloro-4-(3,3-difluoro-1-piperidyl)-2-(2-fluoro-4-pyridyl)-1H-pyrimidin-6-one]	33.1 nM
O=c1[nH]c(-c2ccncc2)nc(N2CCN[C@@H](C(F)(F)F)C2)c1Cl [Compound 180]	26.9 nM
N[C@@H]1CCCN(c2nc(-c3ccnc(F)c3)[nH]c(=O)c2Cl)C1 [Compound 319]	74.1 nM
CC(C)(C)[C@H]1CN(c2nc(-c3ccncc3)[nH]c(=O)c2F)CCN1 [Compound 185]	85.1 nM
O=c1[nH]c(-c2ccncc2)nc(N2CCN(CC(F)F)CC2)c1Cl [Compound 147]	115 nM
O=c1[nH]c(-c2ccncc2)nc(N2CCCOCC2)c1Cl [Compound 186]	347 nM
CC(C)[C@H]1CN(c2nc(-c3ccnc(F)c3)[nH]c(=O)c2Cl)CCN1 [Compound 170]	31.6 nM
